Source: the NIST ThermoML archive (doi:10.1021/je049721u)
± gives the expanded uncertainty stated by the source.

Test: mn = molality of the nth substance listed, in mol/kg
Conditions: 101.3 kPa, Liquid; for speed of sound: Pulse-echo method

[Co+2].[O-][Cl+3]([O-])([O-])[O-].[O-][Cl+3]([O-])([O-])[O-] [cobalt(II) perchlorate] + CN(C)C=O
Conditions | mass density, 283.15 K [kg/m3] | mass density, 293.15 K [kg/m3] | mass density, 298.15 K [kg/m3] | mass density, 303.15 K [kg/m3] | mass density, 313.15 K [kg/m3] | mass density, 323.15 K [kg/m3] | mass density, 333.15 K [kg/m3] | speed of sound, 298.15 K [m/s]
m1 = 0.02921 | 964.275 ± 0.58 | 954.785 ± 0.58 | 950.026 ± 0.59 | 945.273 ± 0.59 | 935.722 ± 0.6 | 926.127 ± 0.6 | 916.489 ± 0.61 | 1459.6 ± 1.4
m1 = 0.03591 | 965.673 ± 0.58 | 956.19 ± 0.58 | 951.432 ± 0.59 | 946.682 ± 0.59 | 937.135 ± 0.59 | 927.546 ± 0.6 | 917.907 ± 0.61 | –
m1 = 0.05081 | 968.79 ± 0.58 | 959.315 ± 0.58 | 954.565 ± 0.58 | 949.82 ± 0.59 | 940.29 ± 0.59 | 930.711 ± 0.6 | 921.09 ± 0.6 | 1461.4 ± 1.4
m1 = 0.05902 | 970.508 ± 0.58 | 961.035 ± 0.58 | 956.29 ± 0.58 | 951.55 ± 0.59 | 942.021 ± 0.59 | 932.457 ± 0.6 | 922.843 ± 0.6 | 1462.1 ± 1.4
m1 = 0.08863 | 976.733 ± 0.58 | 967.283 ± 0.58 | 962.549 ± 0.58 | 957.809 ± 0.58 | 948.308 ± 0.59 | 938.77 ± 0.59 | 929.181 ± 0.6 | 1464.2 ± 1.5
m1 = 0.1167 | 982.692 ± 0.58 | 973.255 ± 0.58 | 968.53 ± 0.58 | 963.801 ± 0.58 | 954.319 ± 0.59 | 944.808 ± 0.59 | 935.256 ± 0.6 | 1466.5 ± 1.5
m1 = 0.1455 | 988.838 ± 0.57 | 979.414 ± 0.58 | 974.697 ± 0.58 | 969.98 ± 0.58 | 960.52 ± 0.58 | 951.034 ± 0.59 | 941.509 ± 0.59 | 1468.5 ± 1.5
m1 = 0.1735 | 994.845 ± 0.57 | 985.454 ± 0.58 | 980.747 ± 0.58 | 976.035 ± 0.58 | 966.596 ± 0.58 | 957.13 ± 0.59 | 947.626 ± 0.59 | 1471 ± 1.5
m1 = 0.2007 | 1000.8 ± 0.57 | 991.403 ± 0.58 | 986.7 ± 0.58 | 981.997 ± 0.58 | 972.578 ± 0.58 | 963.135 ± 0.58 | 953.661 ± 0.59 | 1472.8 ± 1.5
m1 = 0.2305 | 1007.33 ± 0.58 | 997.94 ± 0.58 | 993.248 ± 0.58 | 988.552 ± 0.58 | 979.153 ± 0.58 | 969.73 ± 0.58 | 960.286 ± 0.59 | 1475.4 ± 1.5
m1 = 0.2574 | 1013.28 ± 0.59 | 1003.91 ± 0.58 | 999.223 ± 0.58 | 994.536 ± 0.58 | 985.152 ± 0.58 | 975.753 ± 0.58 | 966.326 ± 0.59 | 1477.5 ± 1.5
m1 = 0.284 | 1019.22 ± 0.6 | 1009.86 ± 0.59 | 1005.18 ± 0.58 | 1000.5 ± 0.58 | 991.143 ± 0.58 | 981.766 ± 0.58 | 972.371 ± 0.58 | 1479.7 ± 1.5
